Results taken from PubChem BioAssay (NCI).
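Protocol summary: plate cells (96-well), add compound at 5 concentrations, incubate 48 h, interpolate endpoints linearly. GI50 is the concentration that inhibits growth by half. At the TGI there is no net growth.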

Key:
Assay in all cases: NCI-60 cell line screen, 48 h
[1] = test system: DU-145 prostate
[2] = test system: K-562 leukemia
[3] = test system: UACC-62 melanoma
[4] = test system: CCRF-CEM leukemia
[5] = test system: OVCAR-8 ovarian
[6] = test system: MALME-3M melanoma
[7] = test system: MOLT-4 leukemia
[8] = test system: RPMI-8226 leukemia
[9] = test system: SR leukemia
[10] = test system: NCI/ADR-RES ovarian
[11] = test system: SW-620 colon
[12] = test system: SNB-75 CNS
[13] = test system: ACHN renal
[14] = test system: UACC-257 melanoma
[15] = test system: HT29 colon
[16] = test system: SF-268 CNS
[17] = test system: OVCAR-4 ovarian
[18] = test system: OVCAR-5 ovarian
[19] = test system: RXF 393 renal
[20] = test system: A549 NSCLC
[21] = test system: SK-MEL-28 melanoma
[22] = test system: NCI-H226 lung
[23] = test system: HOP-92 NSCLC
[24] = test system: SK-MEL-2 melanoma
[25] = test system: KM12 colon
[26] = test system: OVCAR-3 ovarian
[27] = test system: HCT-116 colon
[28] = test system: TK-10 renal
[29] = test system: NCI-H522 lung
[30] = test system: U251 CNS
[31] = test system: EKVX NSCLC
[32] = test system: SF-539 CNS
[33] = test system: SNB-19 CNS
[34] = test system: LOX IMVI melanoma
[35] = test system: HL-60(TB) leukemia
[36] = test system: CAKI-1 renal
[37] = test system: NCI-H460 lung
[38] = test system: M14 melanoma
[39] = test system: UO-31 renal
[40] = test system: SF-295 CNS
[41] = test system: MDA-MB-231 breast
[42] = test system: HCC-2998 colon
[43] = test system: HCT-15 colon
[44] = test system: COLO 205 colon
[45] = test system: NCI-H23 lung
[46] = test system: MCF7 breast
[47] = test system: SK-OV-3 ovarian
[48] = test system: T-47D breast
[49] = test system: IGROV1 ovarian
[50] = test system: SN12C renal
[51] = test system: HS 578T breast
[52] = test system: HOP-62 NSCLC
[53] = test system: SK-MEL-5 melanoma
[54] = test system: MDA-MB-435
[55] = test system: BT-549 breast
[56] = test system: PC-3 prostate
[57] = test system: A498 renal
[58] = test system: 786-0 renal

In the case of `C=CCSSC1N=CNc2nc[nH]c21` (configuration not stated), the GI50 [1] is reported as 0.837 µM, the TGI [1] is reported as > 47.5 µM and the GI50 [2] is reported as 0.343 µM. For the same compound, the TGI [2] was > 26 µM, the GI50 [3] was 1.75 µM and the TGI [3] was > 57.7 µM. For the same compound, the GI50 [4] was 0.871 µM, the TGI [4] was > 28.1 µM and the GI50 [5] was 4 µM. The TGI [5] was 23.3 µM, the GI50 [6] was 3.61 µM and the TGI [6] was > 42.2 µM. The GI50 [7] was 2.15 µM, the TGI [7] was > 24.1 µM and the GI50 [8] was 1.44 µM. For the same compound, the TGI [8] was 6.26 µM, the GI50 [9] was 1.28 µM and the TGI [9] was > 100 µM. For the same compound, the GI50 [10] was 4.46 µM, the TGI [10] was > 80.6 µM and the GI50 [11] was 3.71 µM. For the same compound, the TGI [11] was 14.9 µM, the GI50 [12] was 3.18 µM and the TGI [12] was > 90.9 µM. The GI50 [13] was 5.62 µM, the TGI [13] was > 46.3 µM and the GI50 [14] was 5.34 µM. It also gave a TGI [14] of 16.8 µM, a GI50 [15] of 5.88 µM and a TGI [15] of 36.5 µM. For the same compound, the GI50 [16] was 5.66 µM, the TGI [16] was > 46.9 µM and the GI50 [17] was 0.446 µM. For the same compound, the TGI [17] was 5.43 µM, the GI50 [18] was 7.53 µM and the TGI [18] was > 50.6 µM. For the same compound, the GI50 [19] was 4.73 µM, the TGI [19] was 21.5 µM and the GI50 [20] was 30.5 µM. For the same compound, the TGI [20] was > 100 µM, the GI50 [21] was 27.2 µM and the TGI [21] was > 70.2 µM. The GI50 [22] was 12.2 µM, the TGI [22] was > 100 µM and the GI50 [23] was 0.376 µM. The TGI [23] was 17 µM, the GI50 [24] was 6.11 µM and the TGI [24] was 19.2 µM. The GI50 [25] was 4.42 µM, the TGI [25] was > 43.6 µM and the GI50 [26] was 0.944 µM. It also gave a TGI [26] of 14.2 µM, a GI50 [27] of 2.77 µM and a TGI [27] of 15.8 µM. It also gave a GI50 [28] of 0.708 µM, a TGI [28] of 23.8 µM and a GI50 [29] of 4.34 µM. The TGI [29] was 48.3 µM, the GI50 [30] was 15.9 µM and the TGI [30] was > 54.4 µM. For the same compound, the GI50 [31] was 49.4 µM, the TGI [31] was > 100 µM and the GI50 [32] was 2.6 µM. For the same compound, the TGI [32] was 32.4 µM, the GI50 [33] was > 71.6 µM and the TGI [33] was > 100 µM. For the same compound, the GI50 [34] was 0.374 µM, the TGI [34] was 14.6 µM and the GI50 [35] was 2.4 µM. For the same compound, the TGI [35] was > 26.2 µM, the GI50 [36] was 1.97 µM and the TGI [36] was 34.5 µM. The GI50 [37] was 8.16 µM, the TGI [37] was > 100 µM and the GI50 [38] was 0.461 µM. For the same compound, the TGI [38] was 18.6 µM, the GI50 [39] was 2.72 µM and the TGI [39] was 13 µM. The GI50 [40] was 2.61 µM, the TGI [40] was > 100 µM and the GI50 [41] was 4.84 µM. For the same compound, the TGI [41] was 36.2 µM, the GI50 [42] was 2.82 µM and the TGI [42] was 23.8 µM. The GI50 [43] was 4.71 µM, the TGI [43] was 24.5 µM and the GI50 [44] was 3.52 µM. It also gave a TGI [44] of 14.7 µM, a GI50 [45] of 8.09 µM and a TGI [45] of 42.8 µM. It also gave a GI50 [46] of 1.02 µM, a TGI [46] of 16.1 µM and a GI50 [47] of 0.562 µM. For the same compound, the TGI [47] was > 88.6 µM, the GI50 [48] was 1.39 µM and the TGI [48] was 26.5 µM. The GI50 [49] was 2.12 µM, the TGI [49] was 11.2 µM and the GI50 [50] was 10.4 µM. The TGI [50] was > 67.4 µM, the GI50 [51] was 12.8 µM and the TGI [51] was > 100 µM. The GI50 [52] was 1.54 µM, the TGI [52] was > 70.4 µM and the GI50 [53] was 5.31 µM. The TGI [53] was 39.5 µM, the GI50 [54] was 2.15 µM and the TGI [54] was 39.9 µM. The GI50 [55] was 8.78 µM, the TGI [55] was > 76.4 µM and the GI50 [56] was 5.56 µM. For the same compound, the TGI [56] was 28.7 µM, the GI50 [57] was 67.2 µM and the TGI [57] was > 100 µM. For the same compound, the GI50 [58] was 1.75 µM and the TGI [58] was > 36.3 µM.

`Cc1cc2nc3c4cc(C=O)ccc4n(CCN(C)C)c3nc2cc1C` gave a GI50 [1] of 3.03 µM, a TGI [1] of 10.6 µM and a GI50 [2] of 0.82 µM. For the same compound, the TGI [2] was 18.6 µM, the GI50 [3] was 1.75 µM and the TGI [3] was 3.7 µM. For the same compound, the GI50 [4] was 1.14 µM, the TGI [4] was 7.77 µM and the GI50 [5] was 0.777 µM. It also gave a TGI [5] of 10.9 µM, a GI50 [6] of 1.29 µM and a TGI [6] of 2.76 µM. It also gave a GI50 [7] of 0.389 µM, a TGI [7] of 10.3 µM and a GI50 [8] of 1.91 µM. It also gave a TGI [8] of 5.16 µM, a GI50 [9] of 0.435 µM and a TGI [9] of 11.1 µM. For the same compound, the GI50 [10] was 0.607 µM, the TGI [10] was 6.97 µM and the GI50 [11] was 0.479 µM. The TGI [11] was 4.31 µM, the GI50 [12] was 1.98 µM and the TGI [12] was 5 µM. It also gave a GI50 [13] of 0.426 µM, a TGI [13] of 4.56 µM and a GI50 [14] of 1.96 µM. For the same compound, the TGI [14] was 4.8 µM, the GI50 [15] was 0.656 µM and the TGI [15] was 3.74 µM. For the same compound, the GI50 [16] was 2.05 µM, the TGI [16] was 6.63 µM and the GI50 [17] was 2.12 µM. For the same compound, the TGI [17] was 7.75 µM, the GI50 [18] was 2.17 µM and the TGI [18] was 7.23 µM. For the same compound, the GI50 [19] was 1.06 µM, the TGI [19] was 2.74 µM and the GI50 [20] was 0.851 µM. For the same compound, the TGI [20] was 10.4 µM, the GI50 [21] was 1.78 µM and the TGI [21] was 3.65 µM. It also gave a GI50 [22] of 2.07 µM, a TGI [22] of 7.32 µM and a GI50 [23] of 1.49 µM. It also gave a TGI [23] of 7.35 µM, a GI50 [24] of 1.76 µM and a TGI [24] of 3.65 µM. It also gave a GI50 [25] of 2.12 µM, a TGI [25] of 10 µM and a GI50 [26] of 1.97 µM. The TGI [26] was 6.58 µM, the GI50 [27] was 0.484 µM and the TGI [27] was 9.1 µM. It also gave a GI50 [28] of 1.97 µM, a TGI [28] of 6.59 µM and a GI50 [29] of 1.87 µM. It also gave a TGI [29] of 4.91 µM, a GI50 [30] of 1.65 µM and a TGI [30] of 10.1 µM. It also gave a GI50 [31] of 2.04 µM, a TGI [31] of 6.27 µM and a GI50 [32] of 1.51 µM. It also gave a TGI [32] of 3.87 µM, a GI50 [33] of 1.65 µM and a TGI [33] of 9.09 µM. It also gave a GI50 [34] of 0.532 µM, a TGI [34] of 2.5 µM and a GI50 [35] of 1.35 µM. The TGI [35] was 5.84 µM, the GI50 [36] was 1.7 µM and the TGI [36] was 9.69 µM. The GI50 [37] was 1.19 µM, the TGI [37] was 10.1 µM and the GI50 [38] was 1.3 µM. It also gave a TGI [38] of 2.95 µM, a GI50 [39] of 0.846 µM and a TGI [39] of 8.78 µM. For the same compound, the GI50 [40] was 0.696 µM, the TGI [40] was 5.69 µM and the GI50 [41] was 1.83 µM. It also gave a TGI [41] of 6.99 µM, a GI50 [42] of 1.33 µM and a TGI [42] of 3.14 µM. It also gave a GI50 [43] of 1.36 µM, a TGI [43] of 7.24 µM and a GI50 [44] of 0.574 µM. The TGI [44] was 2.1 µM, the GI50 [45] was 1.49 µM and the TGI [45] was 4.45 µM. It also gave a GI50 [46] of 1.82 µM, a TGI [46] of 5.99 µM and a GI50 [47] of 2.35 µM. For the same compound, the TGI [47] was 10.9 µM, the GI50 [48] was 2.14 µM and the TGI [48] was 7.04 µM. The GI50 [49] was 1.52 µM, the TGI [49] was 6.39 µM and the GI50 [50] was 1.03 µM. For the same compound, the TGI [50] was 8.04 µM, the GI50 [51] was 2.25 µM and the TGI [51] was 6.7 µM. It also gave a GI50 [52] of 1.54 µM, a TGI [52] of 10.1 µM and a GI50 [53] of 1.69 µM. For the same compound, the TGI [53] was 3.33 µM, the GI50 [54] was 1.66 µM and the TGI [54] was 3.07 µM. It also gave a GI50 [55] of 2.15 µM, a TGI [55] of 5.35 µM and a GI50 [56] of 1.62 µM. The TGI [56] was 5.71 µM, the GI50 [57] was 0.5 µM and the TGI [57] was 2.09 µM. For the same compound, the GI50 [58] was 1.43 µM and the TGI [58] was 9.96 µM.
